Laboratory results taken from paper PMC2863073 (Glia, 2008).

System: oligodendrocyte NMDA receptor (NR1-containing; probably NR1, NR2C and NR3)
Assay: whole-cell patch clamp of NMDA-evoked current, […] min memantine pre-exposure
Assay type: cell-based, Rattus norvegicus

IC50: 54 µM
Compound: CC12CC3CC(C)(C1)CC(N)(C3)C2 [memantine]
